Test results from patent US20070048360A1, “Pharmaceutical compositions with melting point depressant agents and method of making same” (priority 2005, published 2007).
Like-named read-outs stand apart in the source and are kept apart here.

Assays:
[1] = cited from earlier work
[2] = Aqueous blending of bulk powdered CFI and active drug, visual and microscopic check; format: physicochemical
[3] = oral; cited from earlier work

For `CC(=O)CCc1ccc2c(c1)OCO2` [4-(1,3-benzodioxol-5-yl)butan-2-one], the “Log P” value [1] is listed as “Log P: 1.15”.
With `COc1ccccc1OCCNCC(O)COc1cccc2[nH]c3ccccc3c12` (stereo not drawn) [CAR, Carvedilol] the “aspect of composition API:PES 1:1 in ethanol/purified water” value (“aspect … in ethanol/purified water” below) ([2]; 30% ethanol) was “stable oil droplets” and the “ethanol content of hydro-alcoholic mixture needed to solubilize the drug” value (“ethanol content” below) (drug 1% w/w) was “at least 80 % by weight of the total mixture”.
With `Clc1cccc(Cl)c1N=C1NCCN1` [CLO, clonidine] the “aspect … in ethanol/purified water” value ([2]; 5% ethanol) was “stable oil droplets”, the “aspect … in ethanol/purified water” value ([2]; 10% ethanol) was “stable oil droplets” and the “ethanol content” value (drug 0.5% w/w) was “at least 50 % by weight of the total mixture”.
With `CN1C2CCCC1CC(NC(=O)c1nn(C)c3ccccc13)C2` (stereo not drawn) [GRA, Granisetron] the “aspect … in ethanol/purified water” value ([2]; 30% ethanol) was “stable oil droplets” and the “ethanol content” value (drug 0.5% w/w) was “at least 40 % by weight of the total mixture”.
In the case of `CC(C)Cc1ccc(C(C)C(=O)O)cc1` (stereo not drawn) [Ibuprofen, ibuprofen], the “ethanol content” value (drug 1% w/w) is reported as “at least 50 % by weight of the total mixture”.
For `c1ccc2c(c1)CC1COCOC21` (stereo not drawn) [Indeno-m-dioxin tetrahydro], the “Log P” value [1] is listed as “Log P: 1.33”.
For `CCN(CC)CC(=O)Nc1c(C)cccc1C` [Lidocaine, lidocaine], the “storage period over which aspect (transparent droplets, no crystallization) was maintained” value ([2]; lidocaine 2.50% w/w and PES 2.50% w/w in water, ambient temperature in the dark) was over 13 month.
With `CCN(CC)CC#CCOC(=O)C(O)(c1ccccc1)C1CCCCC1` (stereo not drawn) [OXY, oxybutynin] the “aspect … in ethanol/purified water” value ([2]; 30% ethanol) was “small transparent droplets easily re-suspended”.
In the case of `CC(C)(C)C1CCCCC1O` (stereo not drawn) [Ortho tertiary butyl cyclohexanol], the “Log P” value [1] is given as “Log P: 3.3-3.4”.
In the case of `O=C(OCCc1ccccc1)c1ccccc1O` [Phenyl ethyl salicylate], the “Log P” value [1] is given as “Log P: 4.31”.
For `CCCN(CCC)CCc1cccc2c1CC(=O)N2` [ROP, Ropinirole], the “aspect … in ethanol/purified water” value ([2]; 15% ethanol) was “stable oil droplets” and the “ethanol content” value (drug 1% w/w) was “at least 40 % by weight of the total mixture”.
With `C[C@]12CC[C@H]3[C@@H](CCC4=CC(=O)CC[C@@]43C)[C@@H]1CC[C@@H]2O` [TES, Testosterone] the “aspect … in ethanol/purified water” value [2] was “stable oil droplets”.
For `NCCCC(O)(P(=O)(O)O)P(=O)(O)O` [sodium alendronate], the “fraction of the drug absorbed when administered orally” value [3] is listed as “about 0.6%”.
